Assay results reported in publication PMC5786306, “An AKAP-Lbc-RhoA interaction inhibitor promotes the translocation of aquaporin-2 to the plasma membrane of renal collecting duct principal cells” (PLoS ONE, 2018).

Legend:
MCD4 cells = experiment: Uptake into cells by mass spectrometry; assay type: in vitro ADME, mouse; details: data not shown
[1] = system: Cdc42 activity in IMCD cells; experiment: PAK-1-PBD pull down, Cdc42; assay type: cell-based, rat; details: 30 μM, 1 h
Method: The (p21) binding domain (PBD) of p21 activated kinase 1 protein (PAK-1) spans amino acids 67–150 of PAK-1 and binds specifically to the GTP-bound Rac-1 and Cdc42. The PBD was prepared as described and used for selective precipitation of the activated GTPases from IMCD cells. The PBD was expressed as a GST-fusion protein in DH5α E-coli cells, the cells were lysed using a French press, and the fusion protein was purified with Glutathione Sepharose 4 Fast Flow GST-tagged protein purification resin kit according to the manufacturer’s instructions (GE Healthcare; #17-5132-01). The PAK-1-PBD pull down was carried out with 400–500 μg protein from IMCD cell lysates. Proteins were eluted from the beads by boiling with Laemmli sample buffer, and analyzed by Western blotting. The membranes were first probed for Cdc42, and the GTP-bound active fraction of the protein was related to total Cdc42, and to the loading control GAPDH. The membranes were re-probed for Rac-1 accordingly to determine the active GTP-bound Rac-1 fraction.
Fig 10 Scaff10-8 inhibits activation of RhoA in primary IMCD cells. IMCD cells were incubated with Scaff10-8 (30 μM, 1 h). DMSO (1%), the solvent of Scaff10-8, served as a control. […] Signals were semiquantitatively analyzed by densitometry. […] Statistically significant differences were determined using one-way ANOVA with posthoc Bonferroni. […]

In the case of `COc1ccc(-c2coc3cc4oc(=O)c(CCC(=O)O)c(C)c4cc23)cc1` [Scaff10-8, 3-[3-(4-Methoxyphenyl)-5-methyl-7-oxo-furo[3,2-g]chromen-6-yl] propanoic acid], the uptake into cells (MCD4 cells) is reported as “confirmed the uptake” and the “activity of Cdc42” value [1] is reported as “did not influence activities”.
